The data set relates to sebaceous glands present in skin of the hamster ear. The data set can be described thus: Hamster ear model: topical uptake of ICG into sebaceous glands (white light and fluorescence micrographs). The data set is classed as in vivo. To be noted: 24 hours, 810 nm illumination, 840 nm bandpass filter. On the procedure: A chromophore is considered “selectively introduced” to sebaceous glands according to the invention if greater than or equal to about 90% of the chromophore remaining associated with the skin after removal of excess chromophore preparation from the skin surface is observed in sebaceous glands. The proportion of a particular chromophore localized to sebaceous glands from a particular chromophore preparation (e.g., chromophore in oil or chromophore in liposomes or lipid suspension) is determined using an appropriate animal model, such as the hamster ear model described herein. Hamsters are known to have sebaceous glands in their ears. These glands are typically on the order of 200 μm in diameter, making them somewhat larger than typical sebaceous glands in humans. Nonetheless, the hamster ear is a convenient and instructive model for human skin and sebaceous glands.
For example, the non-lipophilic chromophore indocyanine green was introduced to sebaceous glands present in skin of the hamster ear according to the following method. The lipid chromophore suspension was topically applied to hamster ears and allowed to travel into the pores and sebaceous glands for 24 hours. After this time, the hamsters were euthanized and their ears were examined for evidence of ICG in the sebaceous glands. […] ICG fluorescence (840 nm) is stimulated by irradiation with 810 nm light. […]

The structures appear in SMILES notation.

As for `CC1(C)C(/C=C/C=C/C=C/C=C2\N(CCCCS(=O)(=O)O)c3ccc4ccccc4c3C2(C)C)=[N+](CCCCS(=O)(=O)[O-])c2ccc3ccccc3c21` [indocyanine green], the “localization of chromophore in skin” value was “present in the sebaceous glands but not in the tissue between the glands”.

The values are drawn from US7018396B2, “Method of treating acne” (New England Medical Center Hospitals, Inc., priority 2001, dated 2006).
